Measurements reported in PubChem BioAssay AID248 (DTP/NCI, 2004).
Values joined by “and” are separate entries in the source; they are usually repeats but may differ in a detail not shown here. Equal values may be shown once. Toxic doses and inconclusive results are not listed. No stated cut-off is given here; in the data, active means T/C of 150% or more; inactive means T/C below 125%.

Tested on: L1210 leukemia ip in BDF1 mice, survival T/C
Test: NCI In Vivo Anticancer Drug Screen. Data for tumor model L1210 Leukemia (intraperitoneal) in B6D2F1 (BDF1) mice
Conditions: endpoint: mean survival time, higher = longer survival
Method in brief: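 Antitumor effect is assessed in tumor-bearing animals. Survival in the compound arm is compared with a vehicle-dosed control arm and expressed as their quotient.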

Measured: T/C

Nc1ccc(OC(=O)Oc2ccc(N)cc2)cc1
inactive: dose: 5.0 mg/kg/injection, schedule: Q01DX Z (iv), vehicle: saline 101 % of control | dose: 6.25 mg/kg/injection, schedule: Q#A X Z (oral), vehicle: saline 106 % of control | dose: 10.0 mg/kg/injection, schedule: Q01DX Z (iv), vehicle: saline 101 % of control | dose: 12.5 mg/kg/injection, schedule: Q01DX Z (oral), vehicle: saline 104 % of control | dose: 12.5 mg/kg/injection, schedule: Q#A X Z (oral), vehicle: saline 108 % of control | dose: 16.0 mg/kg/injection, schedule: Q07DX003 (oral), vehicle: saline 103 % of control | dose: 20.0 mg/kg/injection, schedule: Q01DX Z (iv), vehicle: saline 100 % of control | dose: 25.0 mg/kg/injection, schedule: Q01DX Z (oral), vehicle: saline 104 % of control | dose: 25.0 mg/kg/injection, schedule: Q#A X Z (oral), vehicle: saline 112 % of control | dose: 31.0 mg/kg/injection, schedule: Q07DX003 (oral), vehicle: saline 98 % of control | dose: 37.0 mg/kg/injection, schedule: Q01DX Z (ip), vehicle: carboxymethylcellulose (CMC) 100 % of control | dose: 37.5 mg/kg/injection, schedule: Q01DX009 (ip), vehicle: other 101 % of control | dose: 37.5 mg/kg/injection, schedule: Q01DX017 (ip), vehicle: other 101 % of control | dose: 37.5 mg/kg/injection, schedule: Q#A X018 (ip), vehicle: other 97 % of control | dose: 38.0 mg/kg/injection, schedule: Q01DX Z (ip), vehicle: carboxymethylcellulose (CMC) 98 % of control | dose: 40.0 mg/kg/injection, schedule: Q01DX Z (iv), vehicle: saline 100 % of control | dose: 40.0 mg/kg/injection, schedule: Q#A X Z (ip), vehicle: saline 111 % of control | dose: 50.0 mg/kg/injection, schedule: Q01DX005 (ip), vehicle: saline 101 % of control | dose: 50.0 mg/kg/injection, schedule: Q01DX006 (iv), vehicle: saline 110 % of control | dose: 50.0 mg/kg/injection, schedule: Q01DX009 (ip), vehicle: saline 104 % of control | dose: 50.0 mg/kg/injection, schedule: Q01DX015 (ip), vehicle: other 115 % of control | dose: 50.0 mg/kg/injection, schedule: Q01DX Z (im), vehicle: saline 104 % of control | dose: 50.0 mg/kg/injection, schedule: Q01DX Z (oral), vehicle: saline 112 % of control | dose: 50.0 mg/kg/injection, schedule: Q01DX Z (sc), vehicle: saline 112 % of control | dose: 50.0 mg/kg/injection, schedule: Q## X003 (ip), vehicle: saline 102 % of control | dose: 50.0 mg/kg/injection, schedule: Q## X024 (ip), vehicle: saline 101 % of control | dose: 53.0 mg/kg/injection, schedule: Q01DX Z (ip), vehicle: carboxymethylcellulose (CMC) 89 % of control and 113 % of control | dose: 53.0 mg/kg/injection, schedule: Q01DX Z (ip), vehicle: saline 102 % of control | dose: 63.0 mg/kg/injection, schedule: Q07DX003 (oral), vehicle: saline 106 % of control | dose: 74.0 mg/kg/injection, schedule: Q01DX Z (ip), vehicle: carboxymethylcellulose (CMC) 113 % of control | dose: 75.0 mg/kg/injection, schedule: Q01DX009 (ip), vehicle: other 104 % of control | dose: 75.0 mg/kg/injection, schedule: Q01DX017 (ip), vehicle: other 104 % of control | dose: 75.0 mg/kg/injection, schedule: Q01DX Z (ip), vehicle: carboxymethylcellulose (CMC) 102 % of control | dose: 75.0 mg/kg/injection, schedule: Q#A X018 (ip), vehicle: other 118 % of control | dose: 80.0 mg/kg/injection, schedule: Q01DX012 (oral), vehicle: saline 94 % of control | dose: 80.0 mg/kg/injection, schedule: Q01DX Z (ip), vehicle: carboxymethylcellulose (CMC) 93 % of control | dose: 80.0 mg/kg/injection, schedule: Q01DX Z (ip), vehicle: saline 113 % of control | dose: 100.0 mg/kg/injection, schedule: Q01DX001 (ip), vehicle: saline 98 % of control | dose: 100.0 mg/kg/injection, schedule: Q01DX005 (ip), vehicle: saline 92 % of control | dose: 100.0 mg/kg/injection, schedule: Q01DX005 (oral), vehicle: saline 116 % of control | dose: 100.0 mg/kg/injection, schedule: Q01DX006 (iv), vehicle: saline 114 % of control | dose: 100.0 mg/kg/injection, schedule: Q01DX009 (oral), vehicle: saline 116 % of control | dose: 100.0 mg/kg/injection, schedule: Q01DX015 (ip), vehicle: clinical formulation 118 % of control | dose: 100.0 mg/kg/injection, schedule: Q## X003 (ip), vehicle: saline 106 % of control | dose: 100.0 mg/kg/injection, schedule: Q## X003 (oral), vehicle: saline 101 % of control | dose: 100.0 mg/kg/injection, schedule: Q## X008 (ip), vehicle: saline 101 % of control | dose: 120.0 mg/kg/injection, schedule: Q01DX012 (oral), vehicle: saline 105 % of control | dose: 120.0 mg/kg/injection, schedule: Q01DX Z (ip), vehicle: carboxymethylcellulose (CMC) 97 % of control | dose: 120.0 mg/kg/injection, schedule: Q01DX Z (ip), vehicle: saline 108 % of control and 117 % of control | dose: 125.0 mg/kg/injection, schedule: Q07DX003 (oral), vehicle: saline 106 % of control | dose: 135.0 mg/kg/injection, schedule: Q#A X Z (ip), vehicle: saline 102 % of control | dose: 149.0 mg/kg/injection, schedule: Q01DX Z (ip), vehicle: carboxymethylcellulose (CMC) 105 % of control | dose: 150.0 mg/kg/injection, schedule: Q01DX001 (ip), vehicle: other 109 % of control | dose: 150.0 mg/kg/injection, schedule: Q01DX Z (ip), vehicle: carboxymethylcellulose (CMC) 113 % of control | dose: 180.0 mg/kg/injection, schedule: Q01DX Z (ip), vehicle: carboxymethylcellulose (CMC) 98 % of control | dose: 180.0 mg/kg/injection, schedule: Q01DX Z (ip), vehicle: saline 105 % of control | dose: 180.0 mg/kg/injection, schedule: Q01DX Z (oral), vehicle: saline 110 % of control | dose: 200.0 mg/kg/injection, schedule: Q01DX001 (ip), vehicle: saline 110 % of control | dose: 200.0 mg/kg/injection, schedule: Q01DX005 (oral), vehicle: saline 110 % of control | dose: 200.0 mg/kg/injection, schedule: Q01DX008 (oral), vehicle: saline 93 % of control | dose: 200.0 mg/kg/injection, schedule: Q01DX015 (ip), vehicle: clinical formulation 108 % of control | dose: 200.0 mg/kg/injection, schedule: Q01DX015 (ip), vehicle: other 100 % of control | dose: 200.0 mg/kg/injection, schedule: Q## X003 (ip), vehicle: saline 98 % of control | dose: 200.0 mg/kg/injection, schedule: Q## X003 (oral), vehicle: saline 106 % of control | dose: 200.0 mg/kg/injection, schedule: Q## X008 (ip), vehicle: saline 104 % of control | dose: 200.0 mg/kg/injection, schedule: Q## X024 (ip), vehicle: saline 97 % of control | dose: 240.0 mg/kg/injection, schedule: Q03DX Z (ip), vehicle: saline 110 % of control | dose: 250.0 mg/kg/injection, schedule: Q01DX001 (oral), vehicle: saline 115 % of control | dose: 250.0 mg/kg/injection, schedule: Q03DX006 (oral), vehicle: saline 108 % of control | dose: 250.0 mg/kg/injection, schedule: Q07DX003 (oral), vehicle: saline 113 % of control | dose: 267.0 mg/kg/injection, schedule: Q## X024 (ip), vehicle: saline 106 % of control | dose: 267.0 mg/kg/injection, schedule: Q## X024 (oral), vehicle: saline 110 % of control | dose: 270.0 mg/kg/injection, schedule: Q01DX Z (ip), vehicle: carboxymethylcellulose (CMC) 101 % of control | dose: 270.0 mg/kg/injection, schedule: Q01DX Z (ip), vehicle: other 113 % of control | dose: 270.0 mg/kg/injection, schedule: Q01DX Z (ip), vehicle: saline 91 % of control | dose: 300.0 mg/kg/injection, schedule: Q01DX001 (ip), vehicle: other 103 % of control | dose: 360.0 mg/kg/injection, schedule: Q03DX Z (ip), vehicle: saline 110 % of control | dose: 400.0 mg/kg/injection, schedule: Q01DX001 (ip), vehicle: saline 97 % of control | dose: 400.0 mg/kg/injection, schedule: Q01DX006 (iv), vehicle: saline 118 % of control | dose: 400.0 mg/kg/injection, schedule: Q01DX008 (oral), vehicle: saline 92 % of control | dose: 400.0 mg/kg/injection, schedule: Q## X003 (ip), vehicle: saline 111 % of control | dose: 400.0 mg/kg/injection, schedule: Q## X003 (oral), vehicle: saline 105 % of control | dose: 400.0 mg/kg/injection, schedule: Q## X008 (ip), vehicle: saline 101 % of control | dose: 400.0 mg/kg/injection, schedule: Q## X024 (oral), vehicle: saline 102 % of control and 105 % of control | dose: 405.0 mg/kg/injection, schedule: Q01DX Z (ip), vehicle: other 116 % of control | dose: 500.0 mg/kg/injection, schedule: Q01DX001 (oral), vehicle: saline 110 % of control | dose: 500.0 mg/kg/injection, schedule: Q03DX006 (oral), vehicle: saline 115 % of control | dose: 500.0 mg/kg/injection, schedule: Q07DX003 (oral), vehicle: saline 111 % of control | dose: 540.0 mg/kg/injection, schedule: Q03DX Z (ip), vehicle: saline 115 % of control | dose: 560.0 mg/kg/injection, schedule: Q07DX Z (ip), vehicle: saline 110 % of control | dose: 600.0 mg/kg/injection, schedule: Q## X024 (oral), vehicle: saline 115 % of control | dose: 720.0 mg/kg/injection, schedule: Q01DX Z (oral), vehicle: saline 106 % of control | dose: 800.0 mg/kg/injection, schedule: Q01DX008 (oral), vehicle: saline 116 % of control | dose: 800.0 mg/kg/injection, schedule: Q## X003 (oral), vehicle: saline 102 % of control | dose: 1000.0 mg/kg/injection, schedule: Q01DX001 (oral), vehicle: saline 110 % of control | dose: 1000.0 mg/kg/injection, schedule: Q03DX006 (oral), vehicle: saline 114 % of control | dose: 2000.0 mg/kg/injection, schedule: Q01DX001 (oral), vehicle: saline 92 % of control
